Common to all, as to format: binding, mouse
Test [1] has as its system monoclonal antibody Sol-71. Nature of the test: competitive inhibition ELISA (c-ELISA), monoclonal antibody Sol-71. The settings on record: Sol-71 (IgG2a); ± one standard deviation. As for the experimental part: (§1) Five, 6 month old BALB/c mice were injected with 50 μl of the solanidine-KLH conjugate mixed 1:1 with Ribi adjuvant (Ribi Immunochem Research Inc., Hamilton, Mont.). The mice received half the dose intraperitoneally and half intramuscularly every other week for a total of three injections. One month later, and 4 days prior to fusion, a selected mouse was given an intraperitoneal injection of 50 μl of solanidine-KLHconjugate in sterile saline. The spleen was removed and the splenocytes fused with SP2/O myeloma cells as described by Stanker et al. (1986, J. Immunol., 136:4174-4180), the contents of which are incorporated by reference herein. The fused cells were plated over 30 96-well microculture plates previously coated with mouse peritoneal exudate cells (macrophage) and grown under conditions described by Elissalde et al. (1993, J. Agric. Food Chem., 41:2167-2171), the contents of which are also incorporated by reference herein.
(§2) db-ELISA. A modification of a direct-binding ELISA described by Stanker et al. (1993, J. Agric. Food Chem., 41:1332-1336), the contents of which are incorporated by reference herein, was used to screen the culture fluids from the growing hybridomas for antibodies to solanidine. Microtiter plates (Nunc Maxisorb, Roskilde, Denmark; or Costar high binding plates, Costar Corp., Wilmington, Mass.) were coated with SOL-BSA by addition of 100 μl/well of a 1 μg/ml solution of SOL-BSA in distilled water. The SOL-BSA was incubated in uncovered plates at 37° C. for 18 hr to evaporate the liquid and allow the SOL-BSA to coat the bottom of the microtiter wells. The "coated" plates were then stored in sealed plastic bags at 4° C. and used within 2 weeks. Nonreacted sites on the plates were blocked by adding 400 μl of a 3% solution of nonfat dry milk (NFDM) in assay buffer (0.1M Tris, 0.15M NaCl, 10 mg/ml nonfat dry milk, 0.001% Tween 20, 0.02% sodium azide) and incubating the plates at room temperature for 1 hr. The blocking solution was then discarded and 100 μl of the hybridoma supernatant(s) or anti-solanidine Mab (from ascites fluid) was added, and the plates incubated for 1 hr at 37° C. After incubation, the plates were washed with a solution of 0.05% TWEEN-20 in water, and peroxidase conjugated goat anti-mouse antiserum (Sigma Inc., St. Louis, Mo.), diluted 1:500 in assay buffer, was then added to each well. Following a second 1 hr incubation at 37° C., the plates were washed as described above. Finally, the substrate, 2,2'-azino-bis(ethylbenzthiazole-6-sulfonic acid) (ABTS), was added. Absorbance was measured at 405 nm and the resulting data analyzed by computer using an Excel (Microsoft, Redmond, Wash.) spreadsheet program.
(§3) c-ELISA. The competitive inhibition ELISA for solanidine and other glycoalkaloids was carried out as previously described for other compounds by Stanker et al. (1993, ibid). Briefly, to each well of an antigen (glycoalkaloid or aglycone) coated, non-fat-milk-blocked, microtiter plate prepared as described in the db-ELISA was added 100 μl of assay buffer. Competitors (free solanidine and other glycoalkaloids and aglycones, and four structurally related steroids cholesterol, digitonin, βsitosterol, and stigmasterol, shown in Table 1) dissolved in 100 μl of assay buffer were added to the microassay plate and serially diluted (a 2-fold series). Next, 100 μl of assay buffer containing a predetermined amount of anti-solanidine monoclonal antibody prepared above was added to each well. The amount of anti-alkaloid antibody added was the concentration (dilution from tissue culture supernatant) resulting in approximately 50% of maximum binding or signal in a direct-binding ELISA where no competitor was present. The plates were sealed with plastic wrap, incubated for 1 hr at 37° C., and then processed as described in the db-ELISA to detect bound antibody. […]
(ELISA stands for enzyme-linked immunosorbent assay.)

For test [2], the system named is monoclonal antibody Sol-67. Nature of the test: competitive inhibition ELISA (c-ELISA), monoclonal antibody Sol-67. The settings on record: Sol-67 (IgG1); ± one standard deviation. The method, then: as §1, §2, §3
In test [3] the test system is monoclonal antibody Sol-8. Nature of the test: competitive inhibition ELISA (c-ELISA), monoclonal antibody Sol-8. The settings on record: Sol-8 (IgG2a); ± one standard deviation. As for the experimental part: as §1, §2, §3
For test [4], the system named is monoclonal antibody Sol-129. Nature of the test: competitive inhibition ELISA (c-ELISA), monoclonal antibody Sol-129. The settings on record: Sol-129 (IgG1); ± one standard deviation. As for the experimental part: as §1, §2, §3
Test [5] concerns monoclonal antibody Sol-59. The test is described as follows: competitive inhibition ELISA (c-ELISA), monoclonal antibody Sol-59. The settings on record: Sol-59 (IgG2a); ± one standard deviation. The method, then:
as §1, §2, §3

Test [6] has as its system monoclonal antibody Sol-91. Nature of the test: competitive inhibition ELISA (c-ELISA), monoclonal antibody Sol-91. The settings on record: Sol-91 (IgG2a); ± one standard deviation. As for the experimental part:
as §1, §2, §3

The subject of test [7] is eleven monoclonal antibodies. The test is described as follows: competitive inhibition ELISA (c-ELISA), all eleven monoclonal antibodies. As to conditions: in words. The method, then: as §1, §2
c-ELISA. […]

Test [8] has as its system monoclonal antibody Sol-55. The test is described as follows: competitive inhibition ELISA (c-ELISA), monoclonal antibody Sol-55. As to conditions: Sol-55 (IgG2a); ± one standard deviation. The method, then: as §1, §2, §3
Test [9] deals with monoclonal antibody Sol-106. The test is described as follows: competitive inhibition ELISA (c-ELISA), monoclonal antibody Sol-106. As to conditions: Sol-106 (IgG2a); ± one standard deviation. The method, then: as §1, §2, §3
Test [10] has as its system monoclonal antibody Sol-54. The test is described as follows: competitive inhibition ELISA (c-ELISA), monoclonal antibody Sol-54. As to conditions: Sol-54 (IgG2a); ± one standard deviation. The method, then:
as §1, §2, §3

Test [11] relates to monoclonal antibody Sol-68. Nature of the test: competitive inhibition ELISA (c-ELISA), monoclonal antibody Sol-68. The settings on record: Sol-68 (IgG1); ± one standard deviation. The method, then: as §1, §2, §3

Regarding `CC(C)CCC[C@@H](C)[C@H]1CC[C@H]2[C@@H]3CC=C4C[C@@H](O)CC[C@]4(C)[C@H]3CC[C@]12C` [cholesterol], the IC50 result in test [1], in test [2], in test [3], in test [4], in test [5] and in test [6] was “nc (no competition at 10,000 ppb)” throughout. For the same compound, the IC50 entry in test [8], in [9], in test [10] and in test [11] was “nc (no competition at 10,000 ppb)” each time. The “cross-reaction of the antibodies” value in test [7] is on record as “None of the eleven antibodies cross-reacted”.

As for `C[C@@H]1CC[C@@]2(OC1)O[C@H]1[C@@H](O)[C@H]3[C@@H]4CC[C@H]5C[C@@H](O[C@@H]6O[C@H](CO)[C@H](O[C@@H]7O[C@H](CO)[C@@H](O)[C@H](O[C@@H]8OC[C@@H](O)[C@H](O)[C@H]8O)[C@H]7O[C@@H]7O[C@H](CO)[C@H](O)[C@H](O[C@@H]8O[C@H](CO)[C@@H](O)[C@H](O)[C@H]8O)[C@H]7O)[C@H](O)[C@H]6O)[C@H](O)C[C@]5(C)[C@H]4CC[C@]3(C)[C@H]1[C@@H]2C` [digitonin], the IC50 result in [1], in test [2], in test [3], in [4], in test [5] and in [6] was “nc (no competition at 10,000 ppb)” throughout. The IC50 entry in test [8], in test [9], in [10] and in [11] was “nc (no competition at 10,000 ppb)” in each case. Moreover, the “cross-reaction of the antibodies” value in [7] is given as “None of the eleven antibodies cross-reacted”.

Regarding `CC[C@H](/C=C/[C@@H](C)[C@H]1CC[C@H]2[C@@H]3CC=C4C[C@@H](O)CC[C@]4(C)[C@H]3CC[C@]12C)C(C)C` [stigmasterol], the IC50 result in test [1], in [2], in [3], in [4], in test [5] and in test [6] was “nc (no competition at 10,000 ppb)” each time. The IC50 entry in test [8], in [9], in test [10] and in [11] was “nc (no competition at 10,000 ppb)” each time. The “cross-reaction of the antibodies” value in [7] is recorded as “None of the eleven antibodies cross-reacted”.

Consider `CC[C@H](CC[C@@H](C)[C@H]1CC[C@H]2[C@@H]3CC=C4C[C@@H](O)CC[C@]4(C)[C@H]3CC[C@]12C)C(C)C` [β-sitosterol], for which the IC50 entry in test [1], in [2], in test [3], in [4], in [5] and in test [6] was “nc (no competition at 10,000 ppb)” in each case. The IC50 result in test [8], in [9], in test [10] and in test [11] was “nc (no competition at 10,000 ppb)” throughout. For the same compound, the “cross-reaction of the antibodies” value in test [7] is given as “None of the eleven antibodies cross-reacted”.

For the origin of these results see patent US5614408A, “Monoclonal antibodies to potato, tomato, and eggplant glycoalkaloids and assays for the same” (priority 1995, dated 1997).
